Test results as given in patent publication US11273141B2, “Low-dose carbachol compositions and methods for treatment of night vision disturbance” (VYLUMA INC., priority 2020, dated 2022).
Entries after “also recorded” stand apart in the source; their conditions may differ.

Legend:
[1] = tested on: Dutch Belted Rabbits; test: Pupillary diameter (pupillometry) after single ocular administration, rabbit eye model; assay type: in vivo
Experimental: Study design: 3 Dutch Belted Rabbits (pigmented breed)/group received a single ocular administration of test articles (one drop per eye) at 3 concentrations (tested one week apart). After a 2-week rest period, combinations were tested. Ocular Irritation was assessed using a modified Draize test. Intraocular pressure (IOP) was measured at baseline, 1 h, 4 h, 6 h and 24 h. Pupillary Diameter was measured at baseline, 15 min, 1 h, 4 h and 6 h after dosing.
Due to the variation in pupillary diameter and IOP between rabbits and between eyes within rabbits, the data for pupillary diameter and IOP were normalized and presented with error bars (SD). A change of 15% to 20% approximates a pupillary diameter change of 1 mm. In human, a reduction of pupillary diameter of about 2 mm is clinically generally desired.

[2] = tested on: human individuals; test: Miotic response (dose response, eye color) to carbachol formulations in human; assay type: in vivo
Source text: FIG. 7 is a graph depicting exemplary results for a dose response in human using a carbachol formulation according to the inventive subject matter.
FIG. 8 is a graph depicting exemplary results for miotic response in human individuals of different eye color using a 0.29% carbachol formulation according to the inventive subject matter.
FIG. 9 is a graph depicting exemplary results for miotic response in human individuals of different eye color using a 0.50% carbachol formulation according to the inventive subject matter.
FIG. 10 is a graph depicting exemplary results for miotic response in human individuals of different eye color using a 0.75% carbachol formulation according to the inventive subject matter.
To optimize the concentration of carbachol in the topical ophthalmic formulations, the inventors tested various dosages, and the table below depicts the composition for the carbachol formulations used.
Exemplary results for the miotic effect of carbachol at 0.29%, 0.50%, and 0.75% are depicted in FIG. 7.

[3] = tested on: pupillary muscle; test: Effect of benzalkonium chloride on the miotic effect of carbachol; assay type: in vivo; settings: carbachol 0.025% to 0.075%
Source text: In still further experiments, the inventors investigated the effect of benzalkonium chloride on the miotic effect of carbachol. To that end, different concentrations of BAC were employed between 0.005% and 0.02% at carbachol concentrations between 0.025% and 0.075%, and the results are shown in FIGS. 6A-6C.

[4] = known side effects; cited from earlier work
[5] = 0.5% and 1%, one drop per eye, rabbit

COc1ccc2c3c1O[C@H]1C[C@@H](O)C=C[C@@]31CCN(C)C2 [Galantamine]
duration of reduction in pupillary diameter ([1]; 2% (high dose) alone, rabbit): at least 1 h
decrease in pupillary diameter ([1]; 2% alone, rabbit): 1-2 mm

C[N+](C)(C)CCOC(N)=O [Carbachol, carbamoylcholine]
duration of action ([1]; carbachol doses tested, rabbit): 2 to 4 h
duration of miotic efficacy ([2]; 0.5%, single dose): 3 h
saturation of dose response ([2]; tested formulations): 0.5%

N-Alkyl-N-benzyl-N,N-dimethyl-ammonium chloride [BAC]
effect of BAC on miotic effect of carbachol ([3]; BAC 0.005%): minimal effect
effect of BAC on miotic effect of carbachol ([3]; BAC 0.01%): somewhat more pronounced
effect of BAC on miotic effect of carbachol ([3]; BAC at least 0.02%): significant

CCN(C)C(=O)Oc1cccc([C@H](C)N(C)C)c1 [Rivastigmine]
decrease in pupillary diameter ([1]; 1% alone, rabbit): 1 mm
effect on pupillary diameter (in words) ([1]; 1% alone, rabbit): very low effects as compared to carbachol; also recorded: performed substantially similar to Phentolamine; also recorded: desirable effect

CC(=O)OC1CN2CCC1CC2 (stereo not shown) [aceclidine, 1-azabicyclo[2.2.2]octan-3-yl acetate]
side effects [4]: increased salivation and bradycardia

Cc1ccc(N(CC2=NCCN2)c2cccc(O)c2)cc1 [Phentolamine]
decrease in the pupil [1, 5]: approximately 1 mm
duration of decrease in the pupil [1, 5]: at least 6 h
duration of reduction in pupillary diameter ([1]; all doses, FIG. 1, rabbit): at least 6 h
reduction in pupillary diameter (in words) ([1]; all doses, FIG. 1, rabbit): a reduction in pupillary diameter occurred at all doses

Brc1c(NC2=NCCN2)ccc2nccnc12 [Brimonidine]
effect on pupillary diameter (in words) ([1]; doses tested, concentration not given, rabbit): little to no effect
